Test results reported in US20230061223A1, “USE OF 5-AMINO-2,3-DIHYDRO-1,4-PHTHALAZINEDIONE IN THE INHALATORY TREATMENT OF INFLAMMATORY PULMONARY DISEASES” (MetrioPharm AG, priority 2020, published 2023).
Like-named read-outs stand apart in the source and are kept apart here.

Experiments:
[1] = aerosol characterisation (MMAD, FPF, FPM) by cascade impactor (Next Generation Impactor) after vibrating mesh nebulization; assay type: physicochemical; conditions: for released dosage at the mouthpiece as percentage of the nominal value: 3 min nebulization; for FPM (fine particle mass, 1 μm to 5 μm) / MMAD / FPF (fine particle fraction, <5 μm): vibrating mesh nebulizer; for FPM (fine particle mass, 1 μm to 5 μm) / MMAD / released dosage / FPF (fine particle fraction, <5 μm): NGI at 4° C.; for released dosage: at the mouthpiece, M-neb dose+ mesh nebulizer; for time of aerosol release: corresponds to 30 strokes/breaths; for residual amounts in the mouthpiece: mouthpiece SK-211
Method: It is expressly stated that the values and ranges disclosed herein refer to measurements of the MMAD, FPF and FPM by means of a cascade impactor (Next Generation Impactor, NGI) cooled down to 4° C.
The particle size distribution (FPM) and the mass median aerodynamic diameter (MMAD) of an aerosol generated from an aqueous solution containing 5-amino-2,3-dihydro-1,4-phthalazinedione sodium salt was analyzed.
Crystalline polymorph Form I of 5-amino-2,3-dihydro-1,4-phthalazinedione sodium salt was solved in physiological saline solution (double distilled water containing 0.9% NaCl). The final concentration solution was 20 mg/ml 5-amino-2,3-dihydro-1,4-phthalazinedione sodium salt.
The experimental procedure was carried out pursuant to Ph. Eur. 2.9.44 (Preparations for Nebulisation: Characterisation). A cascade impactor (Next Generation Impactor (NGI), Copley Scientific Ltd., Nottingham, UK) was used to determine the respective percentage for each fraction of the nebulized particles. The cascade impactor was cooled to 4° C. for the measurements
The nebulization of this aqueous solution of 5-amino-2,3-dihydro-1,4-phthalazinedione sodium salt was carried out by means of a vibrating mesh nebulizer (M-neb-dose+, NEBU-TEC, Eisenfeld, Germany). The thus generated aerosol was delivered to the cascade impactor by means of a mouthpiece (SK-211, NEBU-TEC, Eisenfeld, Germany).
The nebulization chamber (yellow stamp, 250 μl liquid discharge) was filled. The puff profile configured at the breath simulator was chosen in such a way that a correct simulation of inhalation by means of the nebulizer was ensured. The corresponding time was recorded.
The quantification of nebulized 5-amino-2,3-dihydro-1,4-phthalazinedione sodium salt per cascade was carried out after extraction from the cascade pans (stage 1-8) by means of HPLC with reference to an external standard calibration curve (range 0-200 μg/ml; correlation coefficient: 0.9999).
Single values obtained for each cascade were added. […] MMAD, FPF and FPM were calculated from the obtained values: […]
For comparison, the particle size distribution (FPF and FPM) and the mass median aerodynamic diameter (MMAD) of an aerosol generated from a physiological saline solution containing salbutamol sulfate was analyzed (not part of the invention). The procedure was the same as described in Example 2.
Salbutamol is one of the most widely used substances for acute asthma attacks. It is often administered via metered-dose inhalers. Therefore, a physiological saline solution of salbutamol sulfate was tested in order to determine the particle size distribution. The standard dosage (Albutol Sulfate) of 180 μg (90 μg/spray application, 2 spray applications per inhalation session) was dissolved in physiological saline.
The procedure was the same as described in Example 2.
The standard dosage (Atrovent) of 18 μg/spray application was dissolved in physiological saline.

[2] = system: cigarette smoke-induced 3-nitrotyrosine formation in the lung parenchyma; conditions: for 3-nitrotyrosine stained surface area, mean ± SEM: n=5 mice, room air 0.24, smoke alone 3.07
Method: 5-amino-2,3-dihydro-1,4-phthalazinedione sodium salt Form I was tested in an isolated, ventilated and perfused mouse lung system that was stimulated with cigarette smoke.
The isolated, ventilated and perfused mouse lung system (ILU) is an established model for studying acute effects of various conditions and drugs on lung parenchyma and vasculature. It is mainly used for examining effects of hypoxia and for evaluating the efficacy of potential drugs on the hypoxic pulmonary vasoreaction (cf. Weissmann et al. (2006) Proc Natl Acad Sci USA 103: 19093-19098).
C57BL/6J mice (n=25, 5 per group; male/female, 3-6 months, 20-30 g; Charles River GmbH, Sulzfeld, Germany) were anesthetized with a ketamine (100 mg/kg body weight) and xylazine (20 mg/kg body weight) intraperitoneal injection (Ceva Tiergesundheit GmbH, Dusseldorf, Germany) containing heparin (50 I.E. heparin/g body weight; Ratiopharm GmbH, Ulm, Germany). The lungs and the heart were removed from the chest cavity and placed on the ILU system (see FIGS. 1A and 1B). Lungs were ventilated in an isolated chamber using normoxic gas (21% O2, 5% CO2, 74% N2; 150 breaths per minute at the PEEP (positive end-expiratory pressure) of 3 cm H2O) and perfused with a modified Krebs-Henseleit buffer (120.0 mM NaCl, 4.3 mM KCl, 1.1 mM KH2PO4, 2.4 mM CaCl2, 1.3 mM MgCl2, 13.14 mM glucose, 0.25 mM hydroxyethyl starch 200000/0.5, 25.0 mM NaHCO3 adjusted to a constant pH range of […] L-arginine; Serag-Wissner GmbH & Co. KG, Naila, Germany) at a temperature of 37° C. Lung weight, right and left ventricle pressure, as well as ventilatory pressure were monitored and recorded during the whole experimental procedure. After 5-10 minutes, when the lung was properly flushed and all the parameters were stable, 5-amino-2,3-dihydro-1,4-phthalazinedione sodium salt was applied by adding 150 μl of a stock solution to 15 ml of the circulating perfusion buffer. The substance was applied 10 minutes prior to the first cigarette smoke application. Cigarette smoke was applied via trachea while lung is perfused with the buffer containing 5-amino-2,3-dihydro-1,4-phthalazinedione sodium salt. Cigarette smoke was prepared freshly before each application, by burning one cigarette (research cigarettes 3R4F, University of Kentucky, USA) in one minute using normoxic gas at the flow of 11/min and collected in a 11 glass bottle containing 5 g silica gel for removing the moist from the cigarette smoke. 50 ml of the cigarette smoke were taken via a syringe and applied to the lung via trachea (FIG. 1A) in deep breaths (periodic inflation for 3-4 s) over a period of 5 min. The application was done manually while carefully monitoring the inspiratory pressure to avoid damage of the lung. The cigarette smoke application was repeated three times with a 1 hour break in-between.
Five treatment groups (n=5, respectively) were investigated:
C: cigarette smoke+0.5 mM 5-amino-2,3-dihydro-1,4-phthalazinedione sodium salt
D: cigarette smoke+1 mM 5-amino-2,3-dihydro-1,4-phthalazinedione sodium salt
E: cigarette smoke+2 mM 5-amino-2,3-dihydro-1,4-phthalazinedione sodium salt
5-amino-2,3-dihydro-1,4-phthalazinedione sodium salt Form I was dissolved in water for injection (vehicle) at the required concentrations described above. Stock solutions were prepared in water for injection. Further 1:100 dilutions were made with modified Krebs-Henseleit buffer (see above). Stock solutions were stored at −70° C. in appropriate aliquots. The required amount of stock solution was thawed, and the corresponding working solution was prepared for immediate use.
One hour after the third cigarette smoke application lungs were removed from the system and fixed by inflating with formalin solution (via trachea) at the pressure of 12-15 cm H2O for two hours at room temperature. Afterwards the fixed lungs were kept in PBS (phosphate buffer saline, see below) at +4° C. until further dehydration and paraffin embedding.

[3] = aerosol from physiological saline solution
[4] = standard dosage in physiological saline
[5] = 20 mg/ml in physiological saline

CC(C)[N+]1(C)[C@@H]2CC[C@H]1CC(OC(=O)C(CO)c1ccccc1)C2.[Br-] (stereo partly drawn) [ipratropium bromide, reference compound]
released dosage at the mouthpiece as percentage of the nominal value [1]: 86%
FPM (fine particle mass, 1 μm to 5 μm) [1, 3]: 69.4%
MMAD [1, 3]: 3.59 μm
released dosage [1, 4]: 15 µg
time of aerosol release [1]: 3 min
residual amounts in the mouthpiece [1]: No residual amounts
FPM (fine particle mass, 1 μm to 5 μm) [1, 4]: 10 µg

Nc1cccc2c(=O)[nH][nH]c(=O)c12.[Na] [5-amino-2,3-dihydro-1,4-phthalazinedione sodium salt]
effect on cigarette smoke induced 3-nitrotyrosine formation (in words) ([2]; 0.5 mM in perfusion buffer): moderate effect
effect on cigarette smoke induced 3-nitrotyrosine formation (in words) ([2]; 1 mM in perfusion buffer): almost completely abolished
effect on cigarette smoke induced 3-nitrotyrosine formation (in words) ([2]; 2 mM in perfusion buffer): almost completely abolished
cigarette smoke-induced 3-nitrotyrosine formation in the lung parenchyma, pre-treatment (in words) ([2]; ILU model, pre-treatment): prevents
3-nitrotyrosine stained surface area, mean ± SEM ([2]; cigarette smoke + 0.5 mM in perfusion buffer): 2.24 ± 0.28 % area
3-nitrotyrosine stained surface area, mean ± SEM ([2]; cigarette smoke + 1 mM in perfusion buffer): 0.72 ± 0.26 % area
3-nitrotyrosine stained surface area, mean ± SEM ([2]; cigarette smoke + 2 mM in perfusion buffer): 0.37 ± 0.13 % area
ROS/RNS levels in cigarette smoke-stimulated mouse lung (in words) ([2]; ex vivo mouse lung, 0.5-2 mM): dose-dependent reduction of ROS/RNS levels down to control levels
FPF (fine particle fraction, <5 μm) [1, 5]: 3.5 mg
FPM (fine particle mass, 1 μm to 5 μm) [1, 5]: 3300 µg
released dosage at the mouthpiece as percentage of the nominal value [1]: 95%
FPF (fine particle fraction, <5 μm) [1, 3]: 74.3%
MMAD [1, 3]: 3.1 μm
FPM (fine particle mass, 1 μm to 5 μm) ([1]; aerosol from physiological saline solution, sodium salt): 69.0%
released dosage [1, 5]: 4700 µg
time of aerosol release [1]: 3 min
residual amounts in the mouthpiece [1]: No residual amounts
FPF in comparison ([1]; versus ipratropium bromide): slightly higher
FPM in comparison ([1]; versus ipratropium bromide): slightly smaller
MMAD in comparison ([1]; versus ipratropium bromide): clearly smaller
FPF in comparison ([1]; versus salbutamol sulfate): slightly higher
FPM in comparison ([1]; versus salbutamol sulfate): in a similar range
MMAD in comparison ([1]; versus salbutamol sulfate): clearly smaller

salbutamol sulfate [reference compound]
released dosage at the mouthpiece as percentage of the nominal value [1]: 92%
FPF (fine particle fraction, <5 μm) [1, 3]: 73.3%
FPM (fine particle mass, 1 μm to 5 μm) [1, 3]: 69.1%
MMAD [1, 3]: 3.57 μm
released dosage [1, 4]: 166 µg
time of aerosol release [1]: 3 min
residual amounts in the mouthpiece [1]: No residual amounts
FPF (fine particle fraction, <5 μm) [1, 4]: 0.122 mg
FPM (fine particle mass, 1 μm to 5 μm) [1, 4]: 115 µg
